Test results from the NIST ThermoML archive (doi:10.1021/je900298e).

Conditions: 101.33 kPa, Liquid

CCCC[N+]1(C)CCCC1.O=S(=O)([N-]S(=O)(=O)C(F)(F)F)C(F)(F)F
Conditions	mass density [kg/m3]
289 K	1404.3
291 K	1402.6
293 K	1401
295 K	1399.4
297.05 K	1397.8
299.05 K	1396.2
301.05 K	1394.6
303.1 K	1393.1
305.1 K	1391.5
307.1 K	1390
309.1 K	1388.5
